From patent publication US10281463B2, “Methods of determining cellular phenotypes” (Technion Research & Development Foundation Limited, priority 2015, dated 2019) come the findings set out here.

Assay [1] deals with E. coli. In words: Antibiotic susceptibility testing of E. coli growth on photonic microarrays diffraction grating (relative EOT shift over time). It counts as cell-based. Conditions: for Cross comparison of antibiotic effect at the same concentration (type of effect): 5 μg/mL of respective antibiotic, E. coli, FIG. 17; for MIC: Escherichia coli, E. coli proliferation on photonic microarrays diffraction grating, antibiotic introduced at time 0 at increasing concentrations, read-out: MIC (minimal inhibitory concentration) observed from EOT growth curves.
Text: A SiPA placed in a flow-device having an inlet and an outlet. […] Fluid containing bacteria is introduced through the inlet. Light reflected from the top and bottom of the pores is collected by the optical setup. The phase delay between the incident and the reflected light beams is proportional to the depth (L) of the pores, and the refractive index of the medium filling the pores. The presence of bacterial cells in the pores increase the refractive index of the pores. Thus, the phase delay of the reflected light in the presence of the bacteria differs from the phase delay of the reflected light in the absence of the bacteria, so that analysis of the light collected by the optical setup can provide indication regarding the phenotype of the cells.
The FFT provides the value (2 nL), where L is the average depth of the pores and n is their refractive index. This quantity is also referred to as the Effective Optical Thickness (EOT). The measured shift in the EOT value is a function of the change in the refraction index of the pole: ΔEOT/EOT0=2(Δn/n0)L, where n0 is the refractive index of the pores before the introduction of the bacteria into the pores, Δn is the change in the refractive index as a result of the introduction of the cells into the compartments, and EOT0 is the EOT before introducing the cells into the compartments. Δn is thus correlated with the pore's volume fraction occupied by bacteria cells.
Types of optical kinetic profiles made by bacterial cells on photonic microarrays diffraction grating (e.g., SiPA) include, without limitation, • 1. Bacteria cells are seeded into the pores/structures. Full growth media is supplied to the cells until a growth curve is established. • a. An anti-proliferation drug (bacteriostatic/antibiotics) is added to the media (see FIG. 7) and the correlation of EOT growth curve and drug concentration is analyzed. The MIC (minimal inhibitory concentration) is determined when the EOT shift becomes null. • b. If the drug is later remove from the media (see FIG. 8), the cell growth may resume, if the drug effect is reversible. • c. If the drug is bactericidal or its bacteriostatic effect is irreversible, then the EOT curve will retract as dead cells disintegrate and exit the pores (see FIG. 8). • d. If the growth media if deficient with critical nutrient or factor, then EOT growth curve will decline in relation to the deficiency (see FIG. 9). • 2. Bacteria suspension is introduced to the photonic microarrays diffraction grating under constant flow conditions, in salt buffer solution. • a. If the suspension contains an anti-attachment drug/factor that will affect pore/structure colonization, then correlation of EOT curve and drug concentration can be analyzed (see FIG. 10). • b. Once a stable EOT curve is established, the bacteria suspension is replaced with clean buffer to challenge the bacteria adhesion. If cells are rinsed out of the pores, EOT plot will retract (see FIG. 11).

Assay [2] deals with E. coli. As to the kind of experiment: E. coli colonization of SiPA as a function of surface functionality (rate of EOT shift). It counts as cell-based. Conditions: FIG. 12A. The method, then: The method includes the continuous or rapid serial monitoring of the light interferometry spectra obtained from a surface with reflective periodic topography (PRT), prior, during and following the controlled introduction of bacterial suspensions to it and/or addition of drugs/substances. Said interferometry spectra is analyzed (for example by fast Fourier transform) to reveal the rate of optical shift, e.g., the time-dependent alterations in the reflected light properties of said PRT, inflicted by the behavior of the cells (for example settling, adhering, migrating or proliferating).
Types of optical kinetic profiles made by bacterial cells on photonic microarrays diffraction grating (e.g., SiPA) include, without limitation, • 1. Bacteria cells are seeded into the pores/structures. Full growth media is supplied to the cells until a growth curve is established. • a. An anti-proliferation drug (bacteriostatic/antibiotics) is added to the media (see FIG. 7) and the correlation of EOT growth curve and drug concentration is analyzed. The MIC (minimal inhibitory concentration) is determined when the EOT shift becomes null. • b. […] If the suspension contains an anti-attachment drug/factor that will affect pore/structure colonization, then correlation of EOT curve and drug concentration can be analyzed (see FIG. 10). • b. […]

In the case of `CO/N=C(\C(=O)N[C@@H]1C(=O)N2C(C(=O)O)=C(CSc3nc(=O)c(=O)[nH]n3C)CS[C@H]12)c1csc(N)n1` [Ceftriaxone Sodium], in assay [1], the “Cross comparison of antibiotic effect at the same concentration (type of effect)” value (shortened to “Cross comparison of antibiotic effect”) is recorded as “bactericidal” and the MIC was 0.005 to 0.05 µg/mL.
Regarding `O=C(O)c1cn(C2CC2)c2cc(N3CCNCC3)c(F)cc2c1=O` [Ciprofloxacin], in assay [1], the “Cross comparison of antibiotic effect” value was “bacteriostatic” and the MIC was in the range of 0.005 to 0.05 µg/mL.
As to `CC(=O)N[C@@H]1[C@@H](O)[C@H](O)[C@@H](CO)O[C@@H]1O` [NAG], the “Effect of WGA ligand in the suspension on WGA-improved colonization” value in assay [2] (NAG incorporated in the E. coli suspension, WGA-coated SiPA) is “completely eliminate this effect”.
In the case of `COc1cc(Cc2cnc(N)nc2N)cc(OC)c1OC` [Trimethoprim], in assay [1], the “Cross comparison of antibiotic effect” value is “below the MIC concentration” and the MIC lay within 5 to 50 µg/mL.
For Wheat-germ agglutinin [WGA], the “Improvement of E. Coli colonization over neat SiO2 or albumin” value in assay [2] (SiPA coated with WGA) stood at 5 times.
